# Values of other authors in US5741892A, “Pentapeptides as antitumor agents” (Basf Aktiengesellschaft, priority 1996, dated 1998).
# Assays:
# [1] = test system: P388 lymphocytic leukemia (PS system) cell line
# [2] = test system: four different human lymphoma cell lines
# [3] = synthetic Dolastatin 10
Substance,inhibition of tubulin polymerization (tubulin),inhibition of cell growth [1],inhibition of growth of lymphoma cell lines [2],solubility in aqueous systems [3]
Dolastatin 15,effectively inhibit,inhibits the growth,effectively inhibit,
Dolastatin 10,effectively inhibit,,effectively inhibit,poor solubility in aqueous systems
